Test results from ChEMBL document CHEMBL4118211, “Isoxazole-tethered diarylheptanoid analogs: Discovery of a new drug-like PAR2 antagonist” (Bioorg Med Chem Lett, 2018).
In brackets after ≈: the same amount, converted by molar mass.

Experiments:
[1] = Kinetic solubility of the compound in phosphate buffer at pH 7.4 at 0.0098 to 10 mM by turbidometric method; assay type: physicochemical; conditions: read-out: Kinetic_solubility
[2] = Metabolic stability in human liver microsomes assessed as parent compound remaining at 1 uM preincubated for 5 mins followed by NADPH addition measured after 30 mins by LC-MS/MS analysis; assay type: ADME, microsome; conditions: read-out: Stability
HepG2 = assay: Cytotoxicity against human HepG2 cells assessed as reduction in cell viability after 24 hrs by MTT assay; assay type: cell-based; conditions: HepG2, 24 h
[3] = target: Proteinase-activated receptor 2 (Homo sapiens) (UniProt P55085); assay: Antagonist activity at PAR2 in human HEK293 cells assessed as inhibition of trypsin-induced intracellular calcium flux at 10 uM pretreated for 15 mins followed by trypsin addition by Fluo-8 dye based fluorescence assay relative to control; assay type: functional, cell-based
[4] = target: Amyloid-beta precursor protein (Homo sapiens, UniProt P05067); assay: Displacement of [125I]IMPY from fibrillar amyloid beta 42 (unknown origin) after 3 hrs
Amyloid-beta precursor protein, sequence (P05067 whole entry): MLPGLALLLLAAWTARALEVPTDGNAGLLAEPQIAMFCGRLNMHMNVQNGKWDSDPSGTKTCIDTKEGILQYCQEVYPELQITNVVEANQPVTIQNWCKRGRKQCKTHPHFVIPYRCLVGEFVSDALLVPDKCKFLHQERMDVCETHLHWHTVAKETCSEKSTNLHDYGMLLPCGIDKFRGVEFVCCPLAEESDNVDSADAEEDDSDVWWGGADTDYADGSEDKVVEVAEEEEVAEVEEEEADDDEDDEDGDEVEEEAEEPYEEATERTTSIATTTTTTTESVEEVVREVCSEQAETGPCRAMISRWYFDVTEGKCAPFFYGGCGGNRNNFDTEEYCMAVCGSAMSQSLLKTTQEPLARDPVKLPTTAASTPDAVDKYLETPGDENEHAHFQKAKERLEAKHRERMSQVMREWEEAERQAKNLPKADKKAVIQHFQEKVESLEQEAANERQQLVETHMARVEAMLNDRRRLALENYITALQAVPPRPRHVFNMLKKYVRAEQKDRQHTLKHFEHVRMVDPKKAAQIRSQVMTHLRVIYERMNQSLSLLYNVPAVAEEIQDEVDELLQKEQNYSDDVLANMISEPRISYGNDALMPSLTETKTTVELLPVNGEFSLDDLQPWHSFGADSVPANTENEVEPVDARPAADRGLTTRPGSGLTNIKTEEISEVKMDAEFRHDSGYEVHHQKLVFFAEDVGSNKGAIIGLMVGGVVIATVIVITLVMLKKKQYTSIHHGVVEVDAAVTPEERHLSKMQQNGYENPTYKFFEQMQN

[5] = target: T1, Proteinase-activated receptor 2 (Homo sapiens, UniProt P55085); assay: Antagonist activity at PAR2 in human 1321N1 cells assessed as inhibition of trypsin-induced intracellular calcium flux pretreated for 60 mins followed by trypsin addition by Fluo-8 NW dye based FLIPR assay; assay type: functional, cell-based
T1 sequence (P55085 whole entry): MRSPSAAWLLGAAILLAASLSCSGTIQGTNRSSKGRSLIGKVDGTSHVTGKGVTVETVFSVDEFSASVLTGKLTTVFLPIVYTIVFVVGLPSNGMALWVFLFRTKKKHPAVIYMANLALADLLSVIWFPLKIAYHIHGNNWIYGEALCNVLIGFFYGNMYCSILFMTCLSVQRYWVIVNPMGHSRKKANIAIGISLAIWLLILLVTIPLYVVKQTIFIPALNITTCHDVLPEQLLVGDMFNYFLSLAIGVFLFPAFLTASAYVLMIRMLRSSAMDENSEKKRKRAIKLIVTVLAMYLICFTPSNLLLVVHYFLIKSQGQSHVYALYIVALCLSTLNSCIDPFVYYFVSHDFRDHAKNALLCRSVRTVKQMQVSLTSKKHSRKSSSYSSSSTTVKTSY

[6] = target: Proteinase-activated receptor 2 (Homo sapiens) (UniProt P55085); assay: Antagonist activity at PAR2 in human HEK293 cells assessed as inhibition of trypsin-induced intracellular calcium flux at 30 uM pretreated for 15 mins followed by trypsin addition by Fluo-8 dye based fluorescence assay relative to control; assay type: functional, cell-based
[7] = target: Proteinase-activated receptor 2 (Homo sapiens) (UniProt P55085); assay: Antagonist activity at PAR2 in human HEK293 cells assessed as trypsin-induced intracellular calcium flux at 3 uM pretreated for 15 mins followed by trypsin addition by Fluo-8 dye based fluorescence assay relative to control; assay type: functional, cell-based; set-up: scale not given: the % may be the effect or the level left
[8] = Permeability from basolateral to apical side in human Caco2 cells at 5 uM after 90 mins; assay type: ADME, cell-based; conditions: Caco-2, read-out: permeability
[9] = target: Proteinase-activated receptor 2 (Homo sapiens) (UniProt P55085); assay: Antagonist activity at PAR2 in human HEK293 cells assessed as trypsin-induced intracellular calcium flux at 10 uM pretreated for 15 mins followed by trypsin addition by Fluo-8 dye based fluorescence assay relative to control; assay type: functional, cell-based; set-up: scale not given: the % may be the effect or the level left
[10] = target: Proteinase-activated receptor 2 (Homo sapiens) (UniProt P55085); assay: Antagonist activity at PAR2 in human HEK293 cells assessed as trypsin-induced intracellular calcium flux at 1 uM pretreated for 15 mins followed by trypsin addition by Fluo-8 dye based fluorescence assay relative to control; assay type: functional, cell-based; set-up: scale not given: the % may be the effect or the level left
[11] = Permeability from apical to basolateral side in human Caco2 cells at 5 uM after 90 mins; assay type: ADME, cell-based; conditions: Caco-2, read-out: permeability
[12] = target: Proteinase-activated receptor 2 (Homo sapiens) (UniProt P55085); assay: Antagonist activity at PAR2 in human HEK293 cells assessed as trypsin-induced intracellular calcium flux at 0.3 uM pretreated for 15 mins followed by trypsin addition by Fluo-8 dye based fluorescence assay relative to control; assay type: functional, cell-based; set-up: scale not given: the % may be the effect or the level left
[13] = target: Proteinase-activated receptor 2 (Homo sapiens) (UniProt P55085); assay: Antagonist activity at PAR2 in human HEK293 cells assessed as trypsin-induced intracellular calcium flux at 0.01 uM pretreated for 15 mins followed by trypsin addition by Fluo-8 dye based fluorescence assay relative to control; assay type: functional, cell-based; set-up: scale not given: the % may be the effect or the level left
[14] = target: T1, Proteinase-activated receptor 2; assay: Antagonist activity at PAR2 in human HEK293 cells assessed as inhibition of trypsin-induced intracellular calcium flux pretreated for 15 mins followed by trypsin addition by Fluo-8 dye based fluorescence assay; assay type: functional, cell-based
[15] = target: Proteinase-activated receptor 2 (Homo sapiens) (UniProt P55085); assay: Antagonist activity at PAR2 in human HEK293 cells assessed as trypsin-induced intracellular calcium flux at 0.1 uM pretreated for 15 mins followed by trypsin addition by Fluo-8 dye based fluorescence assay relative to control; assay type: functional, cell-based; set-up: scale not given: the % may be the effect or the level left
[16] = target: Proteinase-activated receptor 2 (Homo sapiens) (UniProt P55085); assay: Antagonist activity at PAR2 in human HEK293 cells assessed as trypsin-induced intracellular calcium flux at 100 uM pretreated for 15 mins followed by trypsin addition by Fluo-8 dye based fluorescence assay relative to control; assay type: functional, cell-based; set-up: scale not given: the % may be the effect or the level left

Row | SMILES | solubility kinetic [1] [µM] | remaining at 0.5 h, 1 µM [2] [%] | IC50 (HepG2) [µM] | further results
1 | COc1ccc(-c2cc([C@@H](O)C[C@@H](O)CCc3ccc(Cl)cc3)no2)cc1 | 12 (≈ 4.65 µg/mL) | < 20 | > 100 | –
2 | CC[C@H](C)[C@H](NC(=O)[C@H](CC1CCCCC1)NC(=O)c1ccno1)C(=O)N1CCC2(CCc3ccccc32)CC1 | – | – | – | inhibition [3]: 42%
3 | COc1cccc(CC[C@H](O)C[C@@H](O)c2cc(-c3ccccc3)on2)c1 | 25 (≈ 8.84 µg/mL) | < 20 | > 100 | –
4 | COc1cc(/C=C/c2cc(/C=C/c3ccc(O)c(OC)c3)on2)ccc1O | – | – | – | IC50 [4]: 0.138 µM
5 | COc1ccc(CC[C@H](O)C[C@H](O)c2cc(-c3ccc(OC)cc3)on2)cc1 | 12 (≈ 4.6 µg/mL) | < 20 | > 100 | –
6 | CCCc1cc(F)ccc1[C@H](O)c1ncc[nH]1 | – | – | – | IC50 [5]: 4.2 µM
7 | COc1cc(/C=C/C(=O)CC(=O)/C=C/c2ccc(O)c(OC)c2)ccc1O [CURCUMIN] | 3 (≈ 1.11 µg/mL) | 21 | 10 | Papp B→A at 1.5 h, 5 µM [8]: < 0.5 ×10⁻⁶ cm/s; Papp A→B at 1.5 h, 5 µM [11]: < 0.5 ×10⁻⁶ cm/s
8 | C[C@@H](C1CCCCC1)n1c(-c2cc3c(cc2Br)OCO3)nc2cc(C(=O)Nc3ccc(C#N)cc3)ccc21 | – | – | – | IC50 [5]: 6.6 µM

Continued, in another order:

Row | solubility kinetic [1] [µM] | remaining at 0.5 h, 1 µM [2] [%] | SMILES | IC50 (HepG2) [µM] | further results
9 | 25 (≈ 8.84 µg/mL) | 33 | COc1ccc(CC[C@H](O)C[C@H](O)c2cc(-c3ccccc3)on2)cc1 | > 100 | –
10 | 25 (≈ 8.84 µg/mL) | 32 | COc1ccc(CC[C@H](O)C[C@@H](O)c2cc(-c3ccccc3)on2)cc1 | > 100 | –
11 | 25 (≈ 8.53 µg/mL) | 73 | O[C@@H](CCc1ccc(F)cc1)C[C@@H](O)c1cc(-c2ccccc2)on1 | > 100 | inhibition [6]: 70%; Activity [7]: 100%; Papp B→A at 1.5 h, 5 µM [8]: 5 ×10⁻⁶ cm/s; Activity [9]: 65 to 70%; Activity [10]: 100%; Papp A→B at 1.5 h, 5 µM [11]: 6.3 ×10⁻⁶ cm/s
12 | 25 (≈ 8.53 µg/mL) | 84 | O[C@@H](CCc1ccc(F)cc1)C[C@H](O)c1cc(-c2ccccc2)on1 | > 100 | Activity [12]: 80 to 85%; inhibition [6]: 80%; Activity [13]: 95 to 100%; Activity [7]: 60 to 65%; Papp B→A at 1.5 h, 5 µM [8]: 5.8 ×10⁻⁶ cm/s; Activity [9]: 43 to 48%; IC50 [14]: 6 µM; Activity [15]: 90 to 95%; Activity [16]: 15 to 20%; Activity [10]: 74 to 78%; Papp A→B at 1.5 h, 5 µM [11]: 7.4 ×10⁻⁶ cm/s
